Results on seven molecules are retold here after US7713994B2 (Wyeth LLC, priority 2005, dated 2010).

Like-named read-outs stand apart in the source and are kept apart here.

One data set addresses T1, cyclin D1/cdk 4 enzyme (Homo sapiens, UniProt P11802).
T1 construct: made in house; host or cells: Sf9 insect cells, recombinant baculovirus
Kind of data set: CDK4 ELISA kinase assay (phospho-Rb ser 795 detection). The data set is classed as biochemical. A digest of the protocol: (§1)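 Inhibition was derived from A450 relative to control wells lacking compound, following an anti-phospho-Rb Ser795 sandwich of HRP detection. The reactions combined coated GST-Rb fragment, 200 μM ATP and baculovirus-expressed cyclin/CDK enzymes, incubated for 1 h at 30° C.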

A further data set addresses T2, cyclin E/CDK2 enzyme (Homo sapiens, UniProt P24941).
T2 construct: made in house; host or cells: Sf9 insect cells, recombinant baculovirus
Kind of data set: CDK2 ELISA kinase assay (phospho-Rb ser 795 detection). The data set is classed as biochemical. The procedure, abridged:
as §1

A further data set addresses T3, cyclin B/CDK1 enzyme (Homo sapiens, UniProt P06493).
T3 construct: purchased New England BioLabs; host or cells: Sf9 insect cells, recombinant baculovirus
Kind of data set: CDK1 ELISA kinase assay (phospho-Rb ser 795 detection). The data set is classed as biochemical. The procedure, abridged: as §1

Another data set relates to BT474. Kind of data set: Cytotoxicity assay (SRB), BT474. The data set is classed as cell-based. A digest of the protocol:
(§2)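 Percentage survival is derived from SRB absorbance (540 nm) versus untreated cells. Exposures were 3 days, except 6 days for BT474, at 37 °C and 7% CO2.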

The subject of another data set is HCT-116. Kind of data set: Cytotoxicity assay (SRB), HCT-116. It is filed as cell-based. Conditions: Homo sapiens, HCT-116, 72 h, HCT116 cells, SRB, read-out: In Vitro Cellular Activity IC50 HCT116. A digest of the protocol: as §2
The next data set relates to LoVo. Kind of data set: Cytotoxicity assay (SRB), LoVo. Conditions: Homo sapiens, LoVo, 72 h, LoVo cells, SRB, read-out: In Vitro Cellular Activity IC50 LOVO. The data set is classed as cell-based. The procedure, abridged: as §2
A further data set concerns MCF-7. Kind of data set: Cytotoxicity assay (SRB), MCF-7. It is filed as cell-based. The note with it: Homo sapiens, MCF7, 72 h, MCF-7 cells, SRB, read-out: In Vitro Cellular Activity IC50 MCF-7. The procedure, abridged:
as §2

Setting [1] is: In Vitro Enzyme Assay, cyclin D1/cdk 4, read-out: CDK4 IC50.
The mark [2] stands for this setting: In Vitro Enzyme Assay, cyclin E/CDK2, read-out: CDK2 IC50.
Where [3] appears, read: In Vitro Enzyme Assay, cyclin B/CDK1, read-out: CDK1 IC50.
[4] abbreviates: Homo sapiens, BT-474, 144 h, BT474 cells, 6 days, SRB; read-out: In Vitro Cellular Activity IC50 BT474.
Setting [5] is: In Vitro Enzyme Assays, 200 μM ATP, read-out: CDK4 IC50.
[6] abbreviates: In Vitro Enzyme Assays, read-out: CDK2 IC50.
Setting [7] is: In Vitro Enzyme Assays, read-out: CDK1 IC50.
Where [8] appears, read: Homo sapiens, BT-474, 144 h, BT474 cells, SRB, 6 days; read-out: In Vitro Cellular Activity IC50 BT474.

T1 sequence (P11802 whole entry, species assumed): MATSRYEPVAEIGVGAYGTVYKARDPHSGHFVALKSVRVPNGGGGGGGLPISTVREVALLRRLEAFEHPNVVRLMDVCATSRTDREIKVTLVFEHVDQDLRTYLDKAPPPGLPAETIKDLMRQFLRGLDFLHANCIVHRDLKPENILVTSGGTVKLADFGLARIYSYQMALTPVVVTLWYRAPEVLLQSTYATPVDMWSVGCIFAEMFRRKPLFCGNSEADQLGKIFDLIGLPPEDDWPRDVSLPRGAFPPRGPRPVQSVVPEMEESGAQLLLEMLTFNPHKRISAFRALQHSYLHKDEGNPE
T1 sequence (P24385 whole entry partner, species assumed): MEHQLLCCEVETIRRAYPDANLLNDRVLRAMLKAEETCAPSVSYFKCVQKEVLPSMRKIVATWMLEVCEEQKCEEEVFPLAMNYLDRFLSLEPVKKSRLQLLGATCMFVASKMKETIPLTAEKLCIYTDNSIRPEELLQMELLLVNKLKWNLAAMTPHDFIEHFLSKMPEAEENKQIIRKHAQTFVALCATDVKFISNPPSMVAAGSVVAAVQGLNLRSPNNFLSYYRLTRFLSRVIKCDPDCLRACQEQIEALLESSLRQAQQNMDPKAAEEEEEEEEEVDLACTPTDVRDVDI
T3 sequence (P06493 whole entry): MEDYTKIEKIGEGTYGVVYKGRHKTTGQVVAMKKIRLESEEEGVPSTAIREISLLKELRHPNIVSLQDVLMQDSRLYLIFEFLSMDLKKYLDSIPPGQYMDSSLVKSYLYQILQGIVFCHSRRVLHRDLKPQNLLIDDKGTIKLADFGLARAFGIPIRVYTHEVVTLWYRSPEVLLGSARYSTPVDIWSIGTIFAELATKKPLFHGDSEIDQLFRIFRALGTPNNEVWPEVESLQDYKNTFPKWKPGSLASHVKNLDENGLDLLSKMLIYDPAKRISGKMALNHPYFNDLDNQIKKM
T3 sequence (P14635 whole entry partner): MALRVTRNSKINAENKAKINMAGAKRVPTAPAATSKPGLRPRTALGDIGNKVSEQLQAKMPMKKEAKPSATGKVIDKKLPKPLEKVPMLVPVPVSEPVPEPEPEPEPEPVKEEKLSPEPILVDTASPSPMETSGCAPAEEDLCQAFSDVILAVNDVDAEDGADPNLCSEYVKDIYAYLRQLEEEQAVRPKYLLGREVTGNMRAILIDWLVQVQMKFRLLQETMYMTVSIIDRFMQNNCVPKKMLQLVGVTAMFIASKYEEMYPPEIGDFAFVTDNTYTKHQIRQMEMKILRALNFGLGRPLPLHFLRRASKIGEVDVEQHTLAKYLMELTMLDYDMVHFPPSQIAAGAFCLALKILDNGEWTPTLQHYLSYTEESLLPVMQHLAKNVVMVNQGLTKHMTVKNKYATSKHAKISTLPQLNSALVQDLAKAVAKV

`O=C1NC(=O)c2ccc(Br)cc2/C1=C/Nc1ccc(CN2CCC(CCO)CC2)cc1` [Example 489, (4Z)-6-Bromo-4-{[(4-{[4-(2-hydroxyethyl)piperidin-1-yl]methyl}phenyl)amino]methylene}isoquinoline-1,3(2H,4H)-dione] yielded a melting point of 200 to 201 °C. Moreover, the IC50 at cyclin D1/cdk 4 enzyme (setting [1]) was determined as 1.3 µM. Also, the IC50 on cyclin E/CDK2 enzyme (setting [2]) is more than 50 µM. Besides, the IC50 on cyclin B/CDK1 enzyme (setting [3]) was more than 50 µM. Further, the IC50 in the data set with BT474 (setting [4]) came out at 6.25 µM. Also, the IC50 with HCT-116 (3 days) is 4.04 µM. The IC50 with LoVo (3 days) is 4.59 µM. The IC50 with MCF-7 (3 days) stood at 3.43 µM.
In turn, `CN1CCN(c2ccc(N/C=C3\C(=O)NC(=O)c4ccc(-n5cccc5)cc43)cc2F)CC1` [Example 328, (4Z)-4-({[3-Fluoro-4-(4-methylpiperazin-1-yl)phenyl]amino}methylene)-6-(1H-pyrrol-1-yl)isoquinoline-1,3(2H,4H)-dione] showed a melting point of 206 to 207 °C. Further, the IC50 at cyclin D1/cdk 4 enzyme (setting [5]) was 0.77 µM. At cyclin E/CDK2 enzyme (setting [6]), the IC50 is more than 50 µM. The IC50 at cyclin B/CDK1 enzyme (setting [7]) is more than 50 µM. Further, the IC50 with BT474 (setting [8]) was 1.6 µM. Further, the IC50 in the data set on HCT-116 (three days) worked out at 2.4 µM. Moreover, the IC50 in the data set on LoVo (three days) was determined as 8.7 µM. Besides, in the data set on MCF-7 (three days), the IC50 was determined as 1.9 µM.
As for `CN(C)c1ccc(CN/C=C2\C(=O)NC(=O)c3ccc(I)cc32)cc1O` [Example 347, (4Z)-4-({[4-(Dimethylamino)-3-hydroxybenzyl]amino}methylene)-6-iodoisoquinoline-1,3(2H,4H)-dione], the melting point was 198 to 199 °C. On cyclin D1/cdk 4 enzyme (setting [5]), the IC50 was found to be 0.005 µM. The IC50 on cyclin E/CDK2 enzyme (setting [6]) worked out at 1.5 µM. The IC50 at cyclin B/CDK1 enzyme (setting [7]) was 6.7 µM. Moreover, in the data set with BT474 (setting [8]), the IC50 turned out to be 2.4 µM. Besides, the IC50 in the data set with HCT-116 (three days) was found to be 3.1 µM. Also, in the data set with LoVo (three days), the IC50 was 2.7 µM. In the data set on MCF-7 (three days), the IC50 is 2.2 µM.
`O=C1NC(=O)c2ccc(I)cc2/C1=C/NCc1ccc(Cl)c(O)c1` [Example 165, (4Z)-4-{[(4-Chloro-3-hydroxybenzyl)amino]methylene}-6-iodoisoquinoline-′1,3(2H,4H)-dione] yielded a melting point of 324 to 325 °C. At cyclin D1/cdk 4 enzyme (setting [5]), the IC50 is 0.2 µM. For the same molecule, the IC50 at cyclin E/CDK2 enzyme (setting [6]) amounted to 18.9 µM. Moreover, the IC50 at cyclin B/CDK1 enzyme (setting [7]) was more than 50 µM. For the same molecule, the IC50 in the data set with BT474 (setting [8]) is more than 50 µM. In the data set on HCT-116 (three days), the IC50 was determined as 23 µM. Moreover, the IC50 in the data set with LoVo (three days) is more than 50 µM. Further, the IC50 in the data set with MCF-7 (three days) was more than 50 µM.
`CC1CCCN1Cc1ccc(N/C=C2\C(=O)NC(=O)c3ccc(I)cc32)cc1` (centres unmarked) [Example 138, (4Z)-6-Iodo-4-[({4-[(2-methylpyrrolidin-1-yl)methyl]phenyl}amino)methylene]isoquinoline-1,3(2H,4H)-dione] came in with a melting point of 157 to 158 °C. Also, the IC50 at cyclin D1/cdk 4 enzyme (setting [5]) was determined as 0.14 µM. For the same molecule, the IC50 on cyclin E/CDK2 enzyme (setting [6]) is more than 50 µM. The IC50 at cyclin B/CDK1 enzyme (setting [7]) is more than 50 µM. Further, the IC50 with BT474 (setting [8]) is 0.41 µM. The IC50 in the data set on HCT-116 (three days) came out at 3.7 µM. Moreover, in the data set with LoVo (three days), the IC50 stood at 4.9 µM. Besides, the IC50 in the data set with MCF-7 (three days) came out at 1.2 µM.
Consider `CN1CCN(c2cnc(N/C=C3\C(=O)NC(=O)c4ccc(-c5ccoc5)cc43)cn2)CC1` [Example 508, (4Z)-6-(3-Furyl)-4-({[5-(4-methylpiperazin-1-yl)pyrazin-2-yl]amino}methylene)isoquinoline-1,3(2H,4H)-dione], for which the melting point is 226 to 227 °C. Also, the IC50 at cyclin D1/cdk 4 enzyme (setting [1]) is 1.3 µM. The IC50 on cyclin E/CDK2 enzyme (setting [2]) is more than 50 µM. Also, at cyclin B/CDK1 enzyme (setting [3]), the half-maximal inhibitory concentration (IC50) amounted to 2.2 µM. In the data set on BT474 (setting [4]), the IC50 worked out at 3 µM. The IC50 in the data set with HCT-116 (3 days) is 0.95 µM. In addition, the IC50 with LoVo (3 days) turned out to be 1.1 µM. The IC50 in the data set with MCF-7 (3 days) amounted to 1.3 µM.
Regarding `CN1CCCC1c1ccc(N/C=C2\C(=O)NC(=O)c3ccc(I)cc32)nc1` (centres unmarked) [Example 460, (Z)-6-Iodo-4-((5-(1-methylpyrrolidin-2-yl)pyridin-2-ylamino)methylene)isoquinoline-1,3(2H,4H)-dione], the melting point was 174 to 206 °C (dec.). Further, the IC50 at cyclin D1/cdk 4 enzyme (setting [1]) came to 18.3 µM. The IC50 on cyclin E/CDK2 enzyme (setting [2]) was more than 50 µM. For the same molecule, the IC50 on cyclin B/CDK1 enzyme (setting [3]) is more than 50 µM. The IC50 in the data set on BT474 (setting [4]) came out at 10 µM. Also, the IC50 in the data set with HCT-116 (3 days) was 8.3 µM. Besides, the IC50 in the data set with LoVo (3 days) was 9.4 µM. In addition, the IC50 in the data set with MCF-7 (3 days) stood at 10.3 µM.
